Source: PubChem BioAssay (NCI)
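All cell lines were grown in 96-well plates and treated with compound for 48 hours. GI50 marks 50% less growth. TGI is the concentration that stops growth completely.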

Test system: OVCAR-8 ovarian
Assay: growth of human tumour cells (NCI), 48 h

| Compound | GI50 | TGI |
| --- | --- | --- |
| CSc1ccccc1C#C/C=C\C#Cc1ccccc1N | 35.8 µM | > 100 µM |
| O=C1c2cc3c(cc2-c2c1c1cc(Cl)c(Cl)cc1c(=O)n2C[C@H](O)CO)OCO3 | < 0.01 µM | 1.16 µM |
| COc1ccc(/C(=C\C=C(C#N)C#N)Sc2nc3ccccc3s2)cc1 | 13.7 µM | 33.9 µM |
| CC(C)(C)[Si](C)(C)OC1C(=O)C[C@H]2CCCC[C@@H]12 (some centres not stated) | – | > 100 µM |
| CCN(CC)CCSc1c2ccccc2nc2c(OC)ccc(OC)c12 | – | 12 µM |
| COc1cc(/C=C\c2cc(OC)c(OC)c(OC)c2)cc(N/C=C\C(=O)c2cc(OC)c(OC)c(OC)c2)c1OC | 4.7 µM | > 100 µM |
| CCOC(=O)c1ccc(N=Nc2cc(C(=O)OCC)ccc2O)cc1 | – | > 100 µM |
| [N-]=[N+]=N/C1=C/CCCCC(=O)C1 | – | > 100 µM |
| BrCc1cccc(C[P+](c2ccccc2)(c2ccccc2)c2ccccc2)c1 | 6.65 µM | > 100 µM |
| Cc1ccc(NC(=O)CCc2nnc(N)o2)cc1 | – | > 100 µM |
| Cc1cc(N(CCCNc2ccnc3cc(Cl)ccc23)Cc2ccc3c(c2)OCO3)nc(N2CCOCC2)n1 | 0.312 µM | 25.6 µM |
| CCOC(=O)C1SC(=Nc2ccccc2)N=C1C (configuration not stated) | – | > 100 µM |
| O=C1CCC(=O)c2c1c(O)c1ccncc1c2O | – | 25.3 µM |
| CN(C)c1ccc(N=Nc2ccccn2)c(O)c1 | 0.321 µM | > 100 µM |
| C=CCN1CCC23c4c5ccc(O)c4OC2C(=NN=C2CCC4(O)C6Cc7ccc(O)c8c7C4(CCN6CC=C)C2O8)CCC3(O)C1C5 (configuration not stated) | – | 61.7 µM |
| CN(C)CCNC(=O)c1cccc2c(Nc3ccc(S(=O)(=O)N=C(N)N)cc3)c3ccccc3nc12 | – | 69.1 µM |
| COC(=O)C1=C(C(=O)OC)C2=S(SC3=C2CCCC3)S1 (configuration not stated) | – | 39.8 µM |
| O=C(NNc1ccccc1)C(=O)NNc1ccccc1 | > 100 µM | > 100 µM |
| CC1(C)CC(=O)CC(=Nc2ccc([N+](=O)[O-])cc2)C1 | – | > 100 µM |
| Cc1nc2cc(Nc3nc(Nc4ccc(F)cc4)nc(-c4cccs4)n3)ccc2n1Cc1ccccc1 | 3.54 µM | 19 µM |
| CCOC(=O)c1c(-c2ccc(OC)cc2)c(C#N)c2c(C#N)c(N)nn2c1N | 4.27 µM | > 100 µM |

Test system: HS 578T breast
Assay: growth of human tumour cells (NCI), 48 h

| Compound | GI50 | TGI |
| --- | --- | --- |
| Cn1c(Nc2ccc(C(F)(F)F)cc2)nc2cc(Oc3ccnc(-c4ncc(C(F)(F)F)[nH]4)c3)ccc21 | 0.0555 µM | 9.41 µM |
| COc1ccc(-c2nsc3c2NC(=O)CC3c2cccc(OC)c2)cc1 (configuration not stated) | 1.34 µM | 16.9 µM |
| C[C@@]12CCC[C@@](C)(C(=O)O)C1CC[C@]13CC(=O)[C@](CO)(C1)[C@@H](O)CC32 (some centres not stated) | > 100 µM | > 100 µM |
| O=[N+]([O-])c1ccc(CI)cc1 | 3.53 µM | 24.2 µM |
| COc1ccc(-c2cc(/C=C/C(=O)c3ccc(OC)c(OC)c3)[nH]n2)cc1 | 3.38 µM | 29 µM |
| O=C1c2cc3c(cc2-c2c1c1cc(Cl)c(Cl)cc1c(=O)n2C[C@H](O)CO)OCO3 | 0.291 µM | 32.9 µM |
| COc1ccc(/C(=C\C=C(C#N)C#N)Sc2nc3ccccc3s2)cc1 | 31.2 µM | > 50 µM |
| COc1cc(/C=C\c2cc(OC)c(OC)c(OC)c2)cc(N/C=C\C(=O)c2cc(OC)c(OC)c(OC)c2)c1OC | 2.76 µM | > 100 µM |
| BrCc1cccc(C[P+](c2ccccc2)(c2ccccc2)c2ccccc2)c1 | 18.4 µM | > 100 µM |
| Cc1cc(N(CCCNc2ccnc3cc(Cl)ccc23)Cc2ccc3c(c2)OCO3)nc(N2CCOCC2)n1 | 0.288 µM | 18.6 µM |
| CN(C)c1ccc(N=Nc2ccccn2)c(O)c1 | 3.53 µM | > 85.5 µM |
| O=C(NNc1ccccc1)C(=O)NNc1ccccc1 | > 100 µM | > 100 µM |
| Cc1nc2cc(Nc3nc(Nc4ccc(F)cc4)nc(-c4cccs4)n3)ccc2n1Cc1ccccc1 | 3.81 µM | > 100 µM |
